Data taken from US9163020B2, “Azaindole compounds, synthesis thereof, and methods of using the same” (Global Alliance for TB Drug Development, priority 2013, dated 2015).

Assays:
[1] = format: in vitro ADME; details: pH 7.4
Experimental: 1 μM compound was incubated with 1 mg/mL of microsomes (Pooled HLM/MLM with 20 mg/ml protein cone.) at 37° C. in 166 μL of buffer (100 mM phosphate buffer, pH-7.4) containing 2 mM NADPH solution. […] The quench plate was centrifuged at 4000 rpm for 15 min. 30 μL of supernatant was diluted to 300 μL with 50% acetonitrile in water and substrate depletion was analyzed using LC-MS/MS.

[2] = in vitro; format: in vitro ADME; details: pH 7.4; mouse microsomes; read-out: Mo micrsomal Clint
Experimental: 1 μM compound was incubated with 1 mg/mL of microsomes (Pooled HLM/MLM with 20 mg/ml protein cone.) at 37° C. in 166 μL of buffer (100 mM phosphate buffer, pH-7.4) containing 2 mM NADPH solution. 20 μL of incubation mix was quenched with 4 volumes chilled acetonitrile at different time points i.e. 0, 2, 5, 10, 20 and 30 min in a fresh 96 well plate. The quench plate was centrifuged at 4000 rpm for 15 min. 30 μL of supernatant was diluted to 300 μL with 50% acetonitrile in water and substrate depletion was analyzed using LC-MS/MS.

[3] = in vivo; details: Wistar, rat, in vivo
Experimental: PK of azaindoles compounds was performed in mice (healthy and infected) and rats. Mice were pretreated with 100 mg/kg ABT two hours prior to the compound administration. PK data from healthy mice was used to design the dosing regimen for the efficacy study while, information from infected mice was used for the PK-PD analysis.
All oral administration was performed as suspensions in 0.5% HPMC, and 0.1% Tween 80. […] All blood samples were collected via sapheneous vein into Microvette CB300® (Starstedt, Germany) tubes coated with Lithium-Heparin, and plasma was prepared from the collected blood by centrifugation.
One mg/mL stock solution of each compound was prepared in Dimethylsulfoxide (DMSO) and diluted two-fold with acetonitrile. A sixteen point calibration curve was utilized for each analyte, and the standard curves ranged from 0.001 to 40 μg/mL. Plasma/BAL samples were precipitated by adding chilled acetonitrile (1:10 v/v) containing carbamazepine as internal standard (250 ng/mL). Samples were vortexed, and centrifuged at 4000 rpm for 30 min at 10° C. The resulting supernatant was mixed with mobile phase (50% acetonitrile in water with 0.1% formic acid). […] of sample was injected on to a liquid chromatographic system (Waters-ACQUTY UPLC) coupled to triple quadrupole mass spectrometer (Waters-ACQUTY-TQD; MS/MS). Samples were acquired in positive ion mode and detected by multiple reaction monitoring (MRM). Concentrations of the analyte were determined from a standard curve obtained by plotting known concentrations of the analyte against peak area ratios (analyte/internal standard peak response).
PK analysis of the plasma concentration-time relationships were performed with WinNonlin Phoenix Software (version 6.2; Pharsight, USA). […] The maximum concentration of drug in plasma (Cmax), time to Cmax (Tmax), elimination half-life (t1/2), and AUC from time zero to infinity (AUC0-∞) were estimated. […] Minimum of three sample points in the terminal slope were used to estimate to calculate half-life.

[4] = pH 7.4
Experimental: Octanol-water partition coefficient (Log D) based on the shake-flask principle has been measured as follows. The aqueous solution used was 10 mM sodium phosphate buffer pH 7.4. 20 μL of 10 mM compound dissolved in DMSO was taken in glass vial plate. DMSO was removed using GeneVac. 435 μL of octanol was added using Tomtec, stirred for 5 min to dissolve. Further mixing was done by inversion for 5 h at 25° C., subsequently centrifuged for 30 min at 3000 RPM. LC/UV/APPI/MS quantitation of both aqueous and octanol layers was carried out. Log D value was determined according to the following equation.

[5] = tested on: CYP1A2, CYP2C9, CYP2C19, CYP2D6, CYP3A4; details: human
[6] = infected BALB/c mice, chronic efficacy, multiple oral doses 30 mg/kg, +ABT
[7] = in vivo; details: BALB/c, mouse, po

Structure (SMILES): COc1ncnc(Cn2cc(C(=O)NCCF)c3ncccc32)c1C [Compound 3, N-(2-fluoroethyl)-1-((6-methoxy-5-methylpyrimidin-4-yl)methyl)-1H-pyrrolo[3,2-b]pyridine-3-carboxamide]
- Human CLpred microsomes (% LBF) [1]: 10.4 % LBF
- microsomal CLint [2]: 104 µL/min/mg
- AUC(0-t) ([3]; iv, 0.5 mg/kg): 1.6 ± 0.29 µM·h
- C0h ([3]; iv, 0.5 mg/kg): 1.76 ± 0.42 µM
- Vd ([3]; iv, 0.5 mg/kg): 1.05 ± 0.28 L/kg
- clearance ([3]; iv, 0.5 mg/kg): 15.5 ± 3.21 mL/min/kg
- half-life ([3]; iv, 0.5 mg/kg): 2.22 ± 2.51 h
- AUC(0-inf) ([3]; po, 30 mg/kg): 101 µM·h
- Cmax ([3]; po, 30 mg/kg): 15 µM
- F ([3]; po, 30 mg/kg): 96%
- Tmax ([3]; po, 30 mg/kg): 2 h
- half-life ([3]; po, 30 mg/kg): 2.01 h
- logD [4]: 2.1
- CYP inhibition [5]: >50 µM
- % T > MIC [6]: 92%
- % fT > MIC [6]: 29%
- AUC [7]: 200 to 700 µM·h
- AUC(0-inf) ([7]; 30 mg/kg): 252 ± 64 µM·h
- Cmax ([7]; 30 mg/kg): 32.8 ± 14.4 µM
- half-life ([7]; 30 mg/kg): 4.46 ± 0.16 h
